Measured values from PubChem BioAssay AID1963430 (Molecular Pharmacology Branch, DTP, NCI, 2024).
Each block holds one compound with its values, some of them ahead of it.

System: 521955-158-R2-J5-PDC complex spheroid growth, % test/control
Experiment: Anticancer human tumor 521955-158-R2-J5-PDC patient-derived pancreatic carcinoma cell line growth inhibition [Asc]
Settings: for IC50: curve of first compound; for viability, T/C: stronger effect = lower value
Method in brief: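 Complex spheroids combining tumor cells with HUVEC endothelial cells and human MSCs, at 37 degrees C, 5% CO2; agents tested alone or combined, half-log dilutions from at or near clinical Cmax, or 10 microM if Cmax unknown.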

[1] = second compound 0.01 µM, first compound 0.0316 µM
[2] = second compound 0.01 µM, first compound 0.1 µM
[3] = second compound 0.01 µM, first compound 0.316 µM
[4] = second compound 0.01 µM, first compound 1 µM
[5] = second compound 0.01 µM, first compound 3.16 µM
[6] = second compound 0.01 µM, first compound 10 µM
[7] = second compound 0.0316 µM, first compound 0.0316 µM
[8] = second compound 0.0316 µM, first compound 0.1 µM
[9] = second compound 0.0316 µM, first compound 0.316 µM
[10] = second compound 0.0316 µM, first compound 1 µM
[11] = second compound 0.0316 µM, first compound 3.16 µM
[12] = second compound 0.0316 µM, first compound 10 µM
[13] = second compound 0.1 µM, first compound 0.0316 µM
[14] = second compound 0.1 µM, first compound 0.1 µM
[15] = second compound 0.1 µM, first compound 0.316 µM
[16] = second compound 0.1 µM, first compound 1 µM
[17] = second compound 0.1 µM, first compound 3.16 µM
[18] = second compound 0.1 µM, first compound 10 µM
[19] = second compound 0.316 µM, first compound 0.0316 µM
[20] = second compound 0.316 µM, first compound 0.1 µM
[21] = second compound 0.316 µM, first compound 0.316 µM
[22] = second compound 0.316 µM, first compound 1 µM
[23] = second compound 0.316 µM, first compound 3.16 µM
[24] = second compound 0.316 µM, first compound 10 µM
[25] = second compound 1 µM, first compound 0.0316 µM
[26] = second compound 1 µM, first compound 0.1 µM
[27] = second compound 1 µM, first compound 0.316 µM
[28] = second compound 1 µM, first compound 1 µM
[29] = second compound 1 µM, first compound 3.16 µM
[30] = second compound 1 µM, first compound 10 µM
[31] = second compound 0.01 µM, first compound 0.00949 µM
[32] = second compound 0.01 µM, first compound 0.03 µM
[33] = second compound 0.01 µM, first compound 0.0949 µM
[34] = second compound 0.01 µM, first compound 0.3 µM
[35] = second compound 0.01 µM, first compound 0.949 µM
[36] = second compound 0.01 µM, first compound 3 µM
[37] = second compound 0.0316 µM, first compound 0.00949 µM
[38] = second compound 0.0316 µM, first compound 0.03 µM
[39] = second compound 0.0316 µM, first compound 0.0949 µM
[40] = second compound 0.0316 µM, first compound 0.3 µM
[41] = second compound 0.0316 µM, first compound 0.949 µM
[42] = second compound 0.0316 µM, first compound 3 µM
[43] = second compound 0.1 µM, first compound 0.00949 µM
[44] = second compound 0.1 µM, first compound 0.03 µM
[45] = second compound 0.1 µM, first compound 0.0949 µM
[46] = second compound 0.1 µM, first compound 0.3 µM
[47] = second compound 0.1 µM, first compound 0.949 µM
[48] = second compound 0.1 µM, first compound 3 µM
[49] = second compound 0.316 µM, first compound 0.00949 µM
[50] = second compound 0.316 µM, first compound 0.03 µM
[51] = second compound 0.316 µM, first compound 0.0949 µM
[52] = second compound 0.316 µM, first compound 0.3 µM
[53] = second compound 0.316 µM, first compound 0.949 µM
[54] = second compound 0.316 µM, first compound 3 µM
[55] = second compound 1 µM, first compound 0.00949 µM
[56] = second compound 1 µM, first compound 0.03 µM
[57] = second compound 1 µM, first compound 0.0949 µM
[58] = second compound 1 µM, first compound 0.3 µM
[59] = second compound 1 µM, first compound 0.949 µM
[60] = second compound 1 µM, first compound 3 µM
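Note: spheroids exposed to agents for 7 days before readout.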
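Throughout, for viability, T/C: 100% = DMSO vehicle control viability.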

SMILES: C=C(F)C(=O)N1CCN(c2nc(OCC3CCCN3C)nc3c2CCN(c2cccc4cccc(Cl)c24)C3)CC1CC#N (stereo not given) + CNC(C)C(=O)NC1CN(S(=O)(=O)c2cccc(S(=O)(=O)N3CCC4CCC(C(=O)NC(c5ccccc5)c5ccccc5)N4C(=O)C(NC(=O)C(C)NC)C3)c2)CCC2CCC(C(=O)NC(c3ccccc3)c3ccccc3)N2C1=O
- IC50 (second compound 0.01 µM): 5.38 µM
- IC50 (second compound 0.0316 µM): 5.41 µM
- IC50 (second compound 0.1 µM): 5.72 µM
- IC50 (second compound 0.316 µM): 5.6 µM
- IC50 (second compound 1 µM): 5.44 µM
- viability, T/C [1]: 87.1%
- viability, T/C [2]: 93.1%
- viability, T/C [3]: 100%
- viability, T/C [4]: 98.4%
- viability, T/C [5]: 92.6%
- viability, T/C [6]: 0.23%
- viability, T/C [7]: 100%
- viability, T/C [8]: 95.6%
- viability, T/C [9]: 81.3%
- viability, T/C [10]: 90.6%
- viability, T/C [11]: 99.7%
- viability, T/C [12]: 0.23%
- viability, T/C [13]: 111%
- viability, T/C [14]: 106%
- viability, T/C [15]: 79.8%
- viability, T/C [16]: 93.4%
- viability, T/C [17]: 98.2%
- viability, T/C [18]: 5.12%
- viability, T/C [19]: 119%
- viability, T/C [20]: 103%
- viability, T/C [21]: 84%
- viability, T/C [22]: 91.1%
- viability, T/C [23]: 99%
- viability, T/C [24]: 0.31%
- viability, T/C [25]: 85.9%
- viability, T/C [26]: 102%
- viability, T/C [27]: 92%
- viability, T/C [28]: 94.7%
- viability, T/C [29]: 93%
- viability, T/C [30]: 1.89%

SMILES: C=CC(=O)N1CCN(c2nc(=O)n(-c3c(C)ccnc3C(C)C)c3nc(-c4c(O)cccc4F)c(F)cc23)C(C)C1 (stereo not given) + CNC(C)C(=O)NC1CN(S(=O)(=O)c2cccc(S(=O)(=O)N3CCC4CCC(C(=O)NC(c5ccccc5)c5ccccc5)N4C(=O)C(NC(=O)C(C)NC)C3)c2)CCC2CCC(C(=O)NC(c3ccccc3)c3ccccc3)N2C1=O
- IC50 (second compound 0.01 µM): > 10 µM
- IC50 (second compound 0.0316 µM): > 10 µM
- IC50 (second compound 0.1 µM): > 10 µM
- IC50 (second compound 0.316 µM): > 10 µM
- IC50 (second compound 1 µM): > 10 µM
- viability, T/C [1]: 91.1%
- viability, T/C [2]: 105%
- viability, T/C [3]: 111%
- viability, T/C [4]: 118%
- viability, T/C [5]: 119%
- viability, T/C [6]: 88.2%
- viability, T/C [7]: 108%
- viability, T/C [8]: 93.1%
- viability, T/C [9]: 103%
- viability, T/C [10]: 94.8%
- viability, T/C [11]: 115%
- viability, T/C [12]: 96.7%
- viability, T/C [13]: 91.8%
- viability, T/C [14]: 111%
- viability, T/C [15]: 105%
- viability, T/C [16]: 119%
- viability, T/C [17]: 97.4%
- viability, T/C [18]: 89.1%
- viability, T/C [19]: 104%
- viability, T/C [20]: 100%
- viability, T/C [21]: 97.3%
- viability, T/C [22]: 98.2%
- viability, T/C [23]: 106%
- viability, T/C [24]: 95.2%
- viability, T/C [25]: 115%
- viability, T/C [26]: 98.3%
- viability, T/C [27]: 102%
- viability, T/C [28]: 109%
- viability, T/C [29]: 113%
- viability, T/C [30]: 88.3%

SMILES: CCN1C(C(=O)NC23CCC(C(=O)O)(CC2)CC3)C(c2cccc(Cl)c2F)C2(C(=O)Nc3cc(Cl)ccc32)C12CCCCC2 (stereo not given) + CNC(C)C(=O)NC1CN(S(=O)(=O)c2cccc(S(=O)(=O)N3CCC4CCC(C(=O)NC(c5ccccc5)c5ccccc5)N4C(=O)C(NC(=O)C(C)NC)C3)c2)CCC2CCC(C(=O)NC(c3ccccc3)c3ccccc3)N2C1=O
- IC50 (second compound 0.01 µM): > 3 µM
- IC50 (second compound 0.0316 µM): > 3 µM
- IC50 (second compound 0.1 µM): > 3 µM
- IC50 (second compound 0.316 µM): > 3 µM
- IC50 (second compound 1 µM): > 3 µM
- viability, T/C [31]: 107%
- viability, T/C [32]: 112%
- viability, T/C [33]: 90.5%
- viability, T/C [34]: 91.9%
- viability, T/C [35]: 112%
- viability, T/C [36]: 116%
- viability, T/C [37]: 119%
- viability, T/C [38]: 114%
- viability, T/C [39]: 100%
- viability, T/C [40]: 114%
- viability, T/C [41]: 97.1%
- viability, T/C [42]: 97%
- viability, T/C [43]: 91.2%
- viability, T/C [44]: 116%
- viability, T/C [45]: 97.2%
- viability, T/C [46]: 101%
- viability, T/C [47]: 114%
- viability, T/C [48]: 118%
- viability, T/C [49]: 94.9%
- viability, T/C [50]: 106%
- viability, T/C [51]: 106%
- viability, T/C [52]: 98.6%
- viability, T/C [53]: 96.1%
- viability, T/C [54]: 119%
- viability, T/C [55]: 83.3%
- viability, T/C [56]: 108%
- viability, T/C [57]: 115%
- viability, T/C [58]: 103%
- viability, T/C [59]: 105%
- viability, T/C [60]: 108%

Compounds with a lower IC50 (second compound 0.01 µM), results first:

- IC50 (second compound 0.01 µM): < 0.0316 µM
- IC50 (second compound 0.0316 µM): < 0.0316 µM
- IC50 (second compound 0.1 µM): < 0.0316 µM
- IC50 (second compound 0.316 µM): < 0.0316 µM
- IC50 (second compound 1 µM): < 0.0316 µM
SMILES: C#Cc1c(F)ccc2cc(O)cc(-c3ncc4c(N5CC6CCC(C5)N6)nc(OCC56CCCN5CC(F)C6)nc4c3F)c12 (stereo not given) + CNC(C)C(=O)NC1CN(S(=O)(=O)c2cccc(S(=O)(=O)N3CCC4CCC(C(=O)NC(c5ccccc5)c5ccccc5)N4C(=O)C(NC(=O)C(C)NC)C3)c2)CCC2CCC(C(=O)NC(c3ccccc3)c3ccccc3)N2C1=O
- viability, T/C [1]: 22.8%
- viability, T/C [2]: 22.5%
- viability, T/C [3]: 20.6%
- viability, T/C [4]: 16.3%
- viability, T/C [5]: 19.2%
- viability, T/C [6]: 18.2%
- viability, T/C [7]: 20.3%
- viability, T/C [8]: 25.8%
- viability, T/C [9]: 19.4%
- viability, T/C [10]: 13.4%
- viability, T/C [11]: 17.7%
- viability, T/C [12]: 19.9%
- viability, T/C [13]: 22.1%
- viability, T/C [14]: 16.6%
- viability, T/C [15]: 21.6%
- viability, T/C [16]: 15.7%
- viability, T/C [17]: 18.3%
- viability, T/C [18]: 17%
- viability, T/C [19]: 20.8%
- viability, T/C [20]: 17.1%
- viability, T/C [21]: 18.1%
- viability, T/C [22]: 22.8%
- viability, T/C [23]: 17.3%
- viability, T/C [24]: 13.9%
- viability, T/C [25]: 21.6%
- viability, T/C [26]: 18.7%
- viability, T/C [27]: 27.5%
- viability, T/C [28]: 26.6%
- viability, T/C [29]: 19.7%
- viability, T/C [30]: 16.8%

- IC50 (second compound 0.01 µM): 0.613 µM
- IC50 (second compound 0.0316 µM): 0.888 µM
- IC50 (second compound 0.1 µM): 0.271 µM
- IC50 (second compound 0.316 µM): > 3 µM
- IC50 (second compound 1 µM): 1.48 µM
SMILES: Cc1nc(N2CCC3(CC2)COC(C)C3N)c(CO)nc1Sc1ccnc(N)c1Cl (stereo not given) + CNC(C)C(=O)NC1CN(S(=O)(=O)c2cccc(S(=O)(=O)N3CCC4CCC(C(=O)NC(c5ccccc5)c5ccccc5)N4C(=O)C(NC(=O)C(C)NC)C3)c2)CCC2CCC(C(=O)NC(c3ccccc3)c3ccccc3)N2C1=O
- viability, T/C [31]: 86.7%
- viability, T/C [32]: 67.7%
- viability, T/C [33]: 64.6%
- viability, T/C [34]: 49%
- viability, T/C [35]: 48.9%
- viability, T/C [36]: 46.2%
- viability, T/C [37]: 83.6%
- viability, T/C [38]: 72%
- viability, T/C [39]: 66.7%
- viability, T/C [40]: 46%
- viability, T/C [41]: 50.4%
- viability, T/C [42]: 52.6%
- viability, T/C [43]: 84.3%
- viability, T/C [44]: 68.1%
- viability, T/C [45]: 58.9%
- viability, T/C [46]: 43%
- viability, T/C [47]: 52.1%
- viability, T/C [48]: 46.9%
- viability, T/C [49]: 93.3%
- viability, T/C [50]: 65.3%
- viability, T/C [51]: 64.4%
- viability, T/C [52]: 51.9%
- viability, T/C [53]: 53.9%
- viability, T/C [54]: 51.6%
- viability, T/C [55]: 76.7%
- viability, T/C [56]: 59.3%
- viability, T/C [57]: 62.2%
- viability, T/C [58]: 50.9%
- viability, T/C [59]: 57.2%
- viability, T/C [60]: 45%
